Experimental data: paper PMC9605374 (Marine Drugs, 2022)

What was measured:
LC3B-I/II in 22Rv1 cells = test: Western blotting, autophagy marker; format: cell-based, human
Method: We examined several time points, specifically, 15 min, 2 h, and 48 h (Figure 6).
Figure 6 Validation of kinome analysis data. 22Rv1 cells were treated with 1 µM or 10 µM of NB for the indicated time. The protein expression was analyzed by Western blotting using total protein load equal to 30 µg/slot. α-Tubulin was used as a loading control.
(§1) The Western blot assay was executed as previously described: 1 × 10^6 cells were seeded in Petri dishes (ø 6 cm, 5 mL/dish) and incubated overnight. On the next day, the cells were treated with the compounds in fresh culture media (5 mL/dish) for the indicated time. Next, cells were harvested with a cell scraper and lysed in lysis buffer including protease and phosphatase inhibitors cocktail (Roche, Mannheim, Germany). Cell debris were removed from the protein lysates via centrifugation. Afterwards, the cell-free protein mixtures were separated in gradient ready-made Mini-PROTEAN® TGX Stain-Free^TM gels (Bio-Rad, Hercules, CA, USA) using SDS-PAGE (sodium dodecylsulfate polyacrylamide gel electrophoresis). Then, the proteins were blotted onto ø 0.2 µm pore PVDF membrane. The membrane was blocked and consequently treated with primary and secondary antibodies for protein detection. The signals were detected using the ECL chemiluminescence system (Thermo Scientific, Rockford, IL, USA).

[1] = tested on: panel of 14 human cancer cell lines and one prostate cancer cell line DU145; design: method as in PMID 26039736; conditions: panel of 14 human cancer cell lines and DU145, no significant anticancer activity; cited from earlier work
[2] = tested on: caspase-3 in PC3-DR cells; test: Western blotting, caspase-3 cleavage; format: cell-based, human; conditions: 48 h
Method: Number of replicates n = 3. […] Viability was measured using an MTT assay. Number of replicates n = 3.
It is important to note that a reduction in p-gp activity could be conditioned by p-gp degradation or cell death-related processes. Consequently, using a Western blotting analysis, we measured p-gp expressional levels in the treated PC3-DR cells. […] Thus, the observed effect on p-gp activity seems to be exclusively related to the interaction of NB with p-gp rather than result from any cell death-related events.
as §1, with “The membrane was blocked and consequently treated with primary and secondary antibodies for protein detection.” left out

prostate cancer cells = test: MTT assay, mean IC50 in cancer cell panel and selectivity index; format: cell-based, human
Source text: To examine the anticancer potential and selectivity of NB, we used a panel of six human prostate cancer cell lines, harboring different levels of treatment resistance to representatively reflect the heterogeneity of the disease. […] Additionally, four human noncancer cells lines were utilized in order to determine the selectivity of NB towards prostate cancer cells, i.e., prostate noncancer PNT2 and RWPE-1 cells, human embryonic kidney HEK 293T cells, and human fibroblasts MRC-9. The different cell lines were treated with NB and the cell viability was examined using MTT assay (Figure 1). The mean IC50 of NB and docetaxel (used as a reference substance) in noncancerous cell lines was divided by the mean IC50 in the prostate cancer cell lines to determine the selectivity index (SI).
The MTT assay was used to monitor the effect of the drugs on cell viability in terms of metabolic activity, as previously reported. First, preincubation of the cells in 96-well plates (6 × 10^3 cells/well in 100 μL/well) was performed overnight in the correspondent culture medium. Next, the medium was exchanged for fresh medium containing the investigated compounds or a vehicle (100 μL/well). Cells were then incubated for 48 h, unless otherwise stated. Then, 10 μL/well of 3-(4,5-dimethylthiazol-2-yl)-2,5-diphenyltetrazolium bromide reagent (MTT, 5 mg/mL) were added. After 2–4 h of additional incubation the media was removed, and the plates were dried. Finally, 50 μL/well of DMSO were added to solve the formed formazan crystals produced by the metabolic active cells and Infinite F200PRO reader (TECAN, Männedorf, Switzerland) was used to measure the cell viability. The results were proceeded with a GraphPad Prism software v.9.1.1 (GraphPad Software, San Diego, CA, USA). Cells treated with the solvent of the drugs alone were used as a control (100% alive cells). The effect of the drugs on cell viability is represented as IC50.

COc1ccc(C2SSC34CC5(O)C(Cl)C=CC(O)C5ON3C(=O)C2N(C)C4=O)c(O)c1OC (centres unmarked) [NB, N-methylpretrichodermamide B]
effect on autophagy (LC3B-I/II expression) (LC3B-I/II in 22Rv1 cells): no significant effect on autophagy
IC50 [1]: > 10 µM
concentration at which cleavage of caspase-3 was detected [2]: 6 µM
IC50 (prostate cancer cells; Homo sapiens, mean over PC3, PC3-DR, DU145, 22Rv1, VCaP, LNCaP, 48 h, MTT): 6.46 µM
Selectivity Index (SI) (prostate cancer cells; [mean IC50 in noncancer cells]/[mean IC50 in cancer cells]): 2.4
